Several values for one entry are separate records, joined by “and”; a condition that tells them apart may be missing. Identical values can stand only once. Like-named read-outs stand apart in the source and are kept apart here.
Tests used:
[1] = test system: Aedes aegypti (Orlando strain) females; assay: Host-seeking screening assay (miniport olfactometer); format: in vivo; conditions: fed 1 μM in saline, tested 48 h post-meal; for Attraction (relative to saline): per-compound value of Fig. 3C
Procedure, shortened: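 Fasted Orlando-strain females fed saline meals (400 mM NaHCO3) with 1 mM ATP and test compound at 1 μM final via warmed membrane feeders; lethality counted 24 h post-meal. At 48 h, attraction to human-scented stocking plus 5% CO2 scored over 5 min, normalized to matched saline-fed controls.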

[2] = test system: Aedes aegypti (Orlando strain) females; assay: Glytube feeding: females feeding to repletion and weight per female (meal palatability); format: in vivo; conditions: Supplemental Figure 1 Panel A; compounds of Fig 3; individual replicate values
Experimental: Groups of 60–150 females were placed in bucket cages with a diameter of 21.6 cm and height of 16.5 cm (VWR) and fasted with access to water for 24 h prior to feeding. Meals were delivered to females via Glytube membrane feeders as described previously. Meals consisted of 1.5 ml sheep blood (HemoStat Laboratories), saline (400 mM NaHCO3 + dih2O), or saline and test compound. Lyophilized compounds were stored at room temperature until use. High-concentration stocks (30 mM in 100% dimethyl sulfoxide [DMSO]) (Sigma-Aldrich) were stored at −20 °C and diluted in saline immediately prior to feeding. Once prepared, meals and glycerol heating elements were warmed in a 42 °C water bath for 15 min to provide warmth to attract mosquitos to feed. ATP (1 mM final concentration) and test compounds (1 μM final concentration) were added prior to placing the meal on top of the mesh on the cage containing female mosquitos. Females were allowed 15–20 min to feed to repletion. Abdominal engorgement was scored by eye and confirmed by weighing females to ensure full feeding (Data S1). […] Females were returned to their original cage with a diH2O wick for 48 h prior to behavioral testing. The lethality of each compound was measured by counting the number of dead females in each cage 24 h post-meal.
Supplementary file 13071_2024_6347_MOESM1_ESM.png: Supplementary Material 1: Figure 1. […] (A) Percent of females feeding to repletion and (B) weight per female after feeding on the indicated meal used for testing in Miniport olfactometer experiments in Figure 3B. (C) Percent of females feeding to repletion and (D) weight per female after feeding on the indicated meal used for testing in live host assays in Figure 4. Data are shown as mean with standard deviation. n = 2–22 replicate cages, 60–150 females/cage. Females were weighed in groups of five to ensure reliable readings. Kruskal–Wallis with Dunn’s multiple comparisons to saline-fed group, ns P > 0.01, * P < 0.01, *** P < 0.0001. (PNG 321 KB)

Ae. aegypti NPYLR7 = Ae. aegypti NPYLR7 (Aedes aegypti, UniProt U5N1H5); assay: In vitro calcium (GCaMP6s) FLIPR assay in HEK293T cells transfected with NPYLR7; format: cell-based; conditions: for activation at 100 µM: single replicate of the dose-response curve
Procedure, shortened: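 HEK293T cells transiently co-transfected with GCaMP6s, mouse Gqα15 and NPYLR7; FLIPR imaging every second for 5 min, compound (0–100 μM) added after 30 s baseline in HBSS + 20 mM HEPES. Response normalized to buffer (0%) and 10 μM FMRFa3 (100%); relative EC50 by four-parameter fit, replicates averaged.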

[3] = EC50 of the individual assay date/plate (assay date), read-out: EC50
[4] = HEK-293T, 11.1111 uM, single replicate, normalised response
[5] = HEK-293T, 33.3333 uM, single replicate, normalised response
[6] = relative EC50, percent effect relative to 10 μM FMRFa3, read-out: EC50
[7] = sheet Figure 3C, unit inferred, read-out: EC50
[8] = summary EC50 per compound (mean over assay dates), the unit is taken from the neighbouring EC50 (uM) column, read-out: Reported Metric

Chain of Ae. aegypti NPYLR7 (U5N1H5 entry or part of it): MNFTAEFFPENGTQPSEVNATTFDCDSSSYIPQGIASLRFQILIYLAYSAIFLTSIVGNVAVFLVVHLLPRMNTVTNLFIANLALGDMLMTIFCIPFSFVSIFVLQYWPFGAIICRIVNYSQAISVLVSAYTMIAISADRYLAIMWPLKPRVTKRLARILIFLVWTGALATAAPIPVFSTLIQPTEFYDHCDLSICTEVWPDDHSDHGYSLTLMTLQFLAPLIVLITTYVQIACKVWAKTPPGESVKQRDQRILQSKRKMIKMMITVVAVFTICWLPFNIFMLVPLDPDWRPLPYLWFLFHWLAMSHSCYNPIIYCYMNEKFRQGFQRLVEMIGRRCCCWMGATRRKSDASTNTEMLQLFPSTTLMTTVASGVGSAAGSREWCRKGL

SMILES	Attraction (relative to saline) [1]	% feeding (females feeding to repletion) [2]	EC50 (Ae. aegypti NPYLR7; [3])	activation at 11.1111 µM (Ae. aegypti NPYLR7; [4])	activation at 33.3333 µM (Ae. aegypti NPYLR7; [5])	activation at 100 µM (Ae. aegypti NPYLR7; HEK-293T, normalised response)	EC50 (Ae. aegypti NPYLR7; [6])	EC50 (Ae. aegypti NPYLR7; [7])	EC50 (Ae. aegypti NPYLR7; [8])	other results
CCOc1ccc(COc2ccc3c(C)nc(NC(=N)N)nc3c2)cc1 [TDI-014176]	0.74	58.02%	6.35 µM	88%	131%	133%	6.35 µM	6.35 µM	6.35 µM	EC50 (Ae. aegypti NPYLR7; Figure 1E Summary, second list (n = 48), read-out: Reported Metric (Summary list)): 6.35 µM; activation at 0.0017 µM (Ae. aegypti NPYLR7; HEK-293T, 0.0017 uM, single replicate, normalised response): 4.15%; activation at 0.0051 µM (Ae. aegypti NPYLR7; HEK-293T, 0.0051 uM, single replicate, normalised response): 3.37%
COc1ccc2nc(N)nc(C)c2c1 [TDI-012610]	0.99	89.86%					> 100 µM			Reported Metric (Summary list) (Ae. aegypti NPYLR7; Figure 1E Summary, first list: low sensitivity or >100 (n = 41)): low sensitivity; EC50 (uM) (Ae. aegypti NPYLR7; Figure 1E, EC50 of the single assay date/plate): low sensitivity; Reported Metric (EC50) (Ae. aegypti NPYLR7; Figure 1E, metric reported per compound, repeated on every replicate line): low sensitivity; activation at 3.7037 µM (Ae. aegypti NPYLR7; HEK-293T, compound 3.7037 uM, single replicate well, read-out: response at 3.7037): 9.1%; activation at 11.1111 µM (Ae. aegypti NPYLR7; HEK-293T, compound 11.1111 uM, single replicate well, read-out: response at 11.1111): 4.96%; activation at 33.3333 µM (Ae. aegypti NPYLR7; HEK-293T, compound 33.3333 uM, single replicate well, read-out: response at 33.3333): 1.85%; in vitro potency (in words) (Ae. aegypti NPYLR7; relative to reference compound TDI-012631): loss of potency
CCCOc1ccc2c(C)nc(NC(=N)N)nc2c1 [TDI-014178]	0.93	49.19%	2.25 µM	86.6%	96.4%	100%	2.25 µM	2.25 µM	2.25 µM	Host-seeking relative to saline (test compound % host-seeking/average matched saline % host-seeking) ([1]; individual replicates, listed as TDI-04178): 0.93 and 1; EC50 (Ae. aegypti NPYLR7; Figure 1E Summary, third list (n = 39), read-out: Reported Metric (Summary list)): 2.25 µM; activation at 1.2346 µM (Ae. aegypti NPYLR7; HEK-293T, 1.2346 uM, single replicate, normalised response): 42.7%; activation at 3.7037 µM (Ae. aegypti NPYLR7; HEK-293T, 3.7037 uM, single replicate, normalised response): 66.7%

Reference: PMC11212260, “Next-generation neuropeptide Y receptor small-molecule agonists inhibit mosquito-biting behavior” (Parasites & Vectors, 2024)
